Measured values published in PubChem BioAssay (NCI).
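How tested: cells in 96-well plates exposed to compound for 48 hours at five concentrations. At the GI50, growth is halved. TGI marks complete inhibition of growth.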

Experiments:
Experiment in all cases: NCI tumour cell line growth inhibition, 48 h
RXF 393 renal = tested on: RXF 393 renal
U251 CNS = tested on: U251 CNS
MDA-N = tested on: MDA-N
HOP-92 NSCLC = tested on: HOP-92 NSCLC
MDA-MB-435 = tested on: MDA-MB-435
TK-10 renal = tested on: TK-10 renal
MDA-MB-231 breast = tested on: MDA-MB-231 breast
SK-MEL-28 melanoma = tested on: SK-MEL-28 melanoma
UACC-257 melanoma = tested on: UACC-257 melanoma
HS 578T breast = tested on: HS 578T breast

Row | Structure (SMILES) | TGI (RXF 393 renal) [µM] | TGI (U251 CNS) [µM] | TGI (MDA-N) [µM] | TGI (HOP-92 NSCLC) [µM] | TGI (MDA-MB-435) [µM] | TGI (TK-10 renal) [µM] | TGI (MDA-MB-231 breast) [µM] | TGI (SK-MEL-28 melanoma) [µM] | TGI (UACC-257 melanoma) [µM] | TGI (HS 578T breast) [µM] | GI50 (RXF 393 renal) [nM] | GI50 (HS 578T breast) [nM] | GI50 (HOP-92 NSCLC) [nM] | GI50 (TK-10 renal) [nM] | GI50 (SK-MEL-28 melanoma) [nM] | GI50 (UACC-257 melanoma) [nM]
1 | C=C1C(=O)OC2/C=C(/C)C3(O)OC(C)(CC(OC(=O)C(C)C)C12)CC3OC(C)=O (stereo not drawn) | 6.82 | 38.2 | 4.94 | 40.1 | > 43.8 | 24.4 | > 42.6 | > 53 | 68 | – | – | – | – | – | – | –
2 | O=C1CCc2ccc3c(c21)CC1(Cc2ccccc2C1)C3 | – | 74 | > 100 | 45.9 | > 100 | 99.3 | 40.2 | 88.9 | 35.7 | > 100 | – | – | – | – | – | –
3 | O=C1c2cccc(NCCNCCO)c2C(=O)c2cccc(NCCNCCO)c21 | 3.89 | 10.9 | 1.55 | 2.9 | – | 23.2 | – | 5.88 | 9.4 | – | – | – | – | – | – | –
4 | O=C(CNCc1ccccc1)Oc1c(Cl)c(Cl)c(Cl)c(Cl)c1Cl | > 100 | 70.5 | – | – | > 100 | > 100 | 69.1 | > 100 | 54.8 | 50.6 | – | – | – | – | – | –
5 | O=C(O)c1c2c(cc3c1CC1(Cc4ccccc4C1=O)C3)CCC2 (stereo not drawn) | > 100 | > 100 | – | > 91.6 | 16 | > 100 | > 100 | > 100 | > 100 | > 100 | – | – | – | – | – | –
6 | CCOC(=O)[C@@H]1ON2O[C@@H](OC3CCCC3(c3ccccc3)c3ccccc3)C[C@H]3OC(=O)[C@@H]1C32 (stereo partly drawn) | 48.2 | > 100 | 67.6 | > 100 | 34.2 | 43.6 | 49 | – | 50.6 | > 100 | – | – | – | – | – | –
7 | Clc1ccc(Cl)c(SCCCN2CCNCC2)c1 | 32.4 | 34.6 | – | 32.6 | 41.4 | 31.4 | 31.7 | 26.9 | 26.5 | 35.9 | – | – | – | – | – | –
8 | c1csc(-c2c3ccc(=[N+]4CCCCC4)cc-3oc3cc(N4CCCCC4)ccc23)c1 | 0.273 | – | – | 0.309 | – | 0.34 | – | 0.293 | 0.321 | 0.565 | 133 | 56.3 | 127 | 150 | 143 | 98.2
9 | CCCOC(=O)NC(C)C(=O)NC(CCC(=O)NC(CCCC(N)C(=O)O)C(=O)NC(C)C(=O)O)C(=O)O (stereo not drawn) | – | 55.9 | 44.6 | 77.4 | > 100 | > 100 | 50.8 | 44.9 | – | 40.5 | – | – | – | – | – | –
10 | O/C(=C\c1nc2ccccc2nc1NC12CC3CC(CC(C3)C1)C2)c1ccc(Br)cc1 | > 10 | > 10 | > 10 | – | > 10 | > 10 | > 10 | > 10 | > 10 | > 10 | – | – | – | – | – | –
11 | S=C1CC(c2ccccc2)Sc2ccc(Cl)cc2N1 (stereo not drawn) | 25.7 | > 100 | > 100 | – | > 100 | > 100 | > 100 | > 100 | > 100 | 48.3 | – | – | – | – | – | –
